From article PMC7948494, “Structure of an ancestral ADP-dependent kinase with fructose-6P reveals key residues for binding, catalysis, and ligand-induced conformational changes” (The Journal of Biological Chemistry, 2020)
Where a chain is given by its changes, count along the chain named.

Columns and labels:
AncMsPFK [1] = target: T1, AncMsPFK (synthetic construct, UniProt Z9Y5W3ZEF0); test: X-ray crystallography, […] Å; assay type: binding; conditions: closed conformation
T1 construct: synthetic gene in pET-15, N-terminal polyhistidine tag, E. coli BL21; heat step and Ni-Sepharose; 490 residues expected, one molecule per asymmetric unit
T1 sequence (Z9Y5W3ZEF0 22-511): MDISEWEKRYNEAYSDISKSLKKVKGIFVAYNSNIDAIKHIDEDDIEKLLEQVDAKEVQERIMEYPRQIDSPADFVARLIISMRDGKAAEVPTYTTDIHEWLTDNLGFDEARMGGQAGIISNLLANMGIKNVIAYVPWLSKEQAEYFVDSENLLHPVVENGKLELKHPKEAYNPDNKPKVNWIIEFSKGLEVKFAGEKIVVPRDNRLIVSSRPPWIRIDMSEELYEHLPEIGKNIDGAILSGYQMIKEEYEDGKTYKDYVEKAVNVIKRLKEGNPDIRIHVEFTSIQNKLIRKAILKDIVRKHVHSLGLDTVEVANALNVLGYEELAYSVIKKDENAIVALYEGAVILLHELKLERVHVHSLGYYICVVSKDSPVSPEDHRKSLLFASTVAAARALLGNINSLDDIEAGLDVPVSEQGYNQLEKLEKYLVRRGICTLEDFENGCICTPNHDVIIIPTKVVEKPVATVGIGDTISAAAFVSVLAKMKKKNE

AncMsPFK [2] = target: T2, AncMsPFK (synthetic construct, UniProt Z9Y5W3ZEF0, E111A); test: coupled NADH oxidation assay, […] nm; assay type: biochemical; conditions: 1 mM ADP, 2 mM MgCl2, 100 mM Pipes pH 6.5, 25 °C; substrate inhibition fit
T2 construct: synthetic gene in pET-15, N-terminal polyhistidine tag, E. coli BL21; heat step and Ni-Sepharose; 490 residues expected, one molecule per asymmetric unit
T2 sequence (Z9Y5W3ZEF0 22-511 E111A): T1 sequence (Z9Y5W3ZEF0 22-511) with E90A

AncMsPFK [3] = target: T1, AncMsPFK; test: coupled NADH oxidation assay, […] nm; assay type: biochemical; conditions: 1 mM ADP, 2 mM MgCl2, 100 mM Pipes pH 6.5, 25 °C

SMILES | X-ray crystallography, 3.12 Å (AncMsPFK [1]; ternary complex with F6P and Mg2+, nucleotide site) | F6P / KM mM (AncMsPFK [2]) | X-ray crystallography, 3.12 Å (AncMsPFK [1]; ternary complex with Mg-ADPβS, active site) | F6P / KM mM (AncMsPFK [3])
Nc1ncnc2c1ncn2[C@@H]1O[C@H](COP(=O)(O)OP(=O)(O)S)[C@@H](O)[C@H]1O (stereo partly shown) [ADPβS] | The structure of the AncMsPFK in complex with F6P-Mg-ADPβS was solved by molecular replacement | – | – | –
O=P(O)(O)OC[C@H]1OC(O)(CO)[C@@H](O)[C@@H]1O (stereo partly shown) [F6P] | – | 0.09 ± 9.6 × 10^−3 mM | The structure of the AncMsPFK in complex with F6P-Mg-ADPβS was solved by molecular replacement | 0.014 ± 1.5 × 10^−3 mM
